Literature values, collected in US9173845B2, “Controlled release pharmaceutical compositions of milnacipran” (priority 2009, dated 2015).

Settings: immediate release Milnacipran, background

half-life: ~8 h
Structure (SMILES): CCN(CC)C(=O)C1(c2ccccc2)CC1CN (stereo not drawn) [Milnacipran, cis-2-amino methyl-N,N-diethyl-1-phenyl cyclopropane carboxamide]
